Test results from patent US20240366770A1, “DEGRADATION OF BRUTON'S TYROSINE KINASE (BTK) BY CONJUGATION OF BTK INHIBITORS WITH E3 LIGASE LIGAND AND METHODS OF USE” (BeiGene Switzerland GmbH, priority 2021, published 2024).

Experiments:
BTK = target: T1, BTK (Homo sapiens, UniProt Q06187); assay: BTK degradation in TMD-8 cells (HTRF assay); format: cell-based; settings: 6 h treatment, IC50 (DC50) of BTK degradation
T1 construct: High control=Cell group with added DMSO and without compound, indicating microplate readings without BTK degradation; endogenous in cells; host or cells: TMD-8
T1 sequence (Q06187 whole entry): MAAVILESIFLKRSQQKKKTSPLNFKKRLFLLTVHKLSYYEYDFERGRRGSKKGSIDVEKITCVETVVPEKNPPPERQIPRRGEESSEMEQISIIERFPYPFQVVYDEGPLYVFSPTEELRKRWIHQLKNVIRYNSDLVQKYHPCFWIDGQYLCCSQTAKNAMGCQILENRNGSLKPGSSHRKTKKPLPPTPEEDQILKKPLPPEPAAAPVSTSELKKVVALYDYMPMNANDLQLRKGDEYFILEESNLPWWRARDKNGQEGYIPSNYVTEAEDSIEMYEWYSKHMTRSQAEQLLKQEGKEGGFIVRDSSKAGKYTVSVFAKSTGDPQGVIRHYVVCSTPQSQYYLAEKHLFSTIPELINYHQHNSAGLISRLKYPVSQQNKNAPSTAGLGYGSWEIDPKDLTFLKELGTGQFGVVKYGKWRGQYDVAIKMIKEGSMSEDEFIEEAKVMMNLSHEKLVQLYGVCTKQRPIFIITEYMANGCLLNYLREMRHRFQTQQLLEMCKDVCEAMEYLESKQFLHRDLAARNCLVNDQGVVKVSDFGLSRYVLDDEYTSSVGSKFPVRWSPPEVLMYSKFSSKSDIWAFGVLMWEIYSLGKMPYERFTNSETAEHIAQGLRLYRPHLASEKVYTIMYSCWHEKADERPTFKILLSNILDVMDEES
In short: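 BTK remaining after compound treatment was measured by HTRF (337 nm excitation, 665/620 nm emission) in lysates of TMD-8 cells. Cells were exposed for 6 h to eight 6-fold-spaced concentrations in 0.2% DMSO. DC50 values were obtained from a Hill-equation fit (top, bottom, slope) of % inhibition.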

HEK-293 cells = assay: HEK-293 cytotoxicity detection (CellTiter-Glo); format: cell-based; settings: Homo sapiens; HEK-293 cells, 72 h incubation, CellTiter-Glo luminescence, IC50 of cell proliferation inhibition; read-out: HEK293
In short: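 Four-parameter logistic fitting of percent inhibition versus concentration gives IC50. Luminescent ATP read-out (CellTiter-Glo) after 72 h compound treatment of HEK-293 cells, 8 doses in 4-fold steps from a 5 mM 500× DMSO stock, final DMSO 0.2%.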

SMILES	DC50 (BTK) [nM]	IC50 (HEK-293 cells) [nM]
Cc1c([C@@H](C)NC(=O)c2noc(C(C)(C)C)n2)ccc(-c2ncnc3[nH]c4cc(N5CCN(Cc6ccc7c(c6)n(C6CCC(=O)NC6=O)c(=O)n7C)CC5)ccc4c23)c1F (stereo partly drawn) [Example 78, 5-(tert-butyl)-N-((1R)-1-(4-(7-(4-((3-(2,6-dioxopiperidin-3-yl)-1-methyl-2-oxo-2,3-dihydro-1H-benzo[d]imidazol-5-yl)methyl)piperazin-1-yl)-9H-pyrimido[4,5-b]indol-4-yl)-3-fluoro-2-methylphenyl)ethyl)-1,2,4-oxadiazole-3-carboxamide]	> 2000	> 10000
Cc1c([C@@H](C)NC(=O)c2noc(C(C)(C)C)n2)ccc(-c2ncnc3[nH]c4cc(N5CCN(Cc6ccc7c(c6)C6(CC6)C(=O)N7C6CCC(=O)NC6=O)CC5)ccc4c23)c1F (stereo partly drawn) [Example 79, 5-(tert-butyl)-N-((1R)-1-(4-(7-(4-((1′-(2,6-dioxopiperidin-3-yl)-2′-oxospiro[cyclopropane-1,3′-indolin]-5′-yl)methyl)piperazin-1-yl)-9H-pyrimido[4,5-b]indol-4-yl)-3-fluoro-2-methylphenyl)ethyl)-1,2,4-oxadiazole-3-carboxamide]	15.9	> 10000
Cc1c([C@@H](C)NC(=O)c2noc(C(C)(C)C)n2)ccc(-c2ncnc3[nH]c4cc(N5CCN(CCc6ccc(SC7CCC(=O)NC7=O)cc6)CC5)ccc4c23)c1F (stereo partly drawn) [Example 80, 5-(tert-butyl)-N-((1R)-1-(4-(7-(4-(4-((2,6-dioxopiperidin-3-yl)thio)phenethyl)piperazin-1-yl)-9H-pyrimido[4,5-b]indol-4-yl)-3-fluoro-2-methylphenyl)ethyl)-1,2,4-oxadiazole-3-carboxamide]	16.6	> 10000
CN1CCN(CC2CCN(c3ncnc4[nH]c5cc(N6CCN(CC7CCN(c8ccc(N9CCC(=O)NC9=O)cc8)CC7)CC6)ccc5c34)CC2)C1=O [Example 81, 1-(4-(4-((4-(4-(4-((3-methyl-2-oxoimidazolidin-1-yl)methyl)piperidin-1-yl)-9H-pyrimido[4,5-b]indol-7-yl)piperazin-1-yl)methyl)piperidin-1-yl)phenyl)dihydropyrimidine-2,4(1H,3H)-dione]	> 2000	> 10000

Further lines, with some results ahead:

DC50 (BTK) [nM]	SMILES	IC50 (HEK-293 cells) [nM]
3.17	Cc1c([C@@H](C)NC(=O)c2noc(C(C)(C)C)n2)ccc(-c2ncnc3[nH]c4cc(N5CCN(CCc6cccc7c6n(C)c(=O)n7C6CCC(=O)NC6=O)CC5)ccc4c23)c1F (stereo partly drawn) [Example 82, 5-(tert-butyl)-N-((1R)-1-(4-(7-(4-(2-(1-(2,6-dioxopiperidin-3-yl)-3-methyl-2-oxo-2,3-dihydro-1H-benzo[d]imidazol-4-yl)ethyl)piperazin-1-yl)-9H-pyrimido[4,5-b]indol-4-yl)-3-fluoro-2-methylphenyl)ethyl)-1,2,4-oxadiazole-3-carboxamide]	> 10000
2.42	COc1cc2c(cc1N1CCN(Cc3ccc4c(c3)C(C)(C)C(=O)N4C3CCC(=O)NC3=O)CC1)[nH]c1ncnc(-c3cc(C)c([C@@H](C)NC(=O)c4nc(C(C)(C)C)no4)cc3F)c12 (stereo partly drawn) [Example 83, 3-(tert-butyl)-N-((1R)-1-(4-(7-(4-((1-(2,6-dioxopiperidin-3-yl)-3,3-dimethyl-2-oxoindolin-5-yl)methyl)piperazin-1-yl)-6-methoxy-9H-pyrimido[4,5-b]indol-4-yl)-5-fluoro-2-methylphenyl)ethyl)-1,2,4-oxadiazole-5-carboxamide]	> 10000
8.15	Cc1c([C@@H](C)NC(=O)c2noc(C(C)(C)C)n2)ccc(-c2ncnc3[nH]c4cc(N5CCN(Cc6cccc7c6C(C)(C)C(=O)N7C6CCC(=O)NC6=O)CC5)ccc4c23)c1F (stereo partly drawn) [Example 84, 5-(tert-butyl)-N-((1R)-1-(4-(7-(4-((1-(2,6-dioxopiperidin-3-yl)-3,3-dimethyl-2-oxoindolin-4-yl)methyl)piperazin-1-yl)-9H-pyrimido[4,5-b]indol-4-yl)-3-fluoro-2-methylphenyl)ethyl)-1,2,4-oxadiazole-3-carboxamide]	> 10000
